Test results: patent US12263248B2, “Compounds and compositions for intracellular delivery of therapeutic agents” (ModernaTX, Inc., priority 2018, dated 2025)
Marks after values point to notes of the source that are not given here.

Key:
[1] = Particle size and polydispersity index of nanoparticle compositions (Zetasizer Nano ZS); format: physicochemical
Summary of the method: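 Values are size and PDI readings from a Zetasizer Nano ZS. Measurements are taken in 1×PBS; zeta potential, by contrast, uses 15 mM PBS.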

[2] = test system: luciferase (Luc) mRNA; test: Luc expression in liver, lung, spleen and femur 6 hours after intravenous administration; format: in vivo; settings: mice, 0.5 mpk; for Total Flux Femur / Total Flux Liver / Total Flux Lung / Total Flux Spleen: intravenous
Summary of the method: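 LNP-formulated mRNA given IV to mice (n=3) at 0.5 mpk; at 6 h, bioluminescence imaged ex vivo 15 min after IP D-luciferin (15 mg/mL, 200 μL), organs imaged within 25 min. Values are total flux by region of interest.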

[3] = test system: IL-6, IP-10; test: Cytokine induction in mice upon intravenous administration; format: in vivo; set-up: Cytokine induction IL-6 / Cytokine induction IP-10: unit not given here; settings: 0.5 mpk, 6 hours; for IL-6 induction / IP-10 induction: i.v., in words; for Cytokine induction IL-6 / Cytokine induction IP-10: intravenous
Summary of the method: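 IL-6 and IP-10 concentrations determined 6 hours after a single intravenous 0.5 mpk dose of lipid nanoparticle formulation in mice, with MC3 and PBS as comparators.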

[4] = Residual lipid levels in rat liver and spleen (UPLC-MS); format: in vivo; settings: for % Lipid Remaining in liver, 48 h: 2 mpk, assuming 300 g rat and 15 g liver; for % remaining dose in liver, 48 h: intravenous, 2.0 mpk
Summary of the method: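 Rats received a single intravenous dose of lipid nanoparticle composition, and liver tissue was later collected to quantify residual lipid. Weighed tissue was homogenized in Milli-Q water (900 μL per 100 mg tissue) using an Omni probe homogenizer. 50 μL aliquots were mixed with 400 μL spiking solution, vortexed, centrifuged, and analyzed by UPLC on a C8 column with positive-mode ESI detection on a Sciex API5500 mass spectrometer.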

[5] = test system: luciferase mRNA; test: Luciferase expression after subcutaneous administration to mice; format: in vivo, female CD-1 mice
Summary of the method: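 Female CD-1 mice given luciferase mRNA in lipid nanoparticle formulations subcutaneously at 0.5 mpk. Expression read by whole-body bioluminescence imaging at 3, 6 and 24 h, with ex vivo liver, spleen and injection-site luminescence at 24 h.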

[6] = Table 1A, lipid:DSPC:cholesterol:PEG-DMG 50:10:38.5:1.5 mol %
[7] = Table 1C, compositions for subcutaneous administration
[8] = Table 1B, formulated with hEPO mRNA

SMILES	PDI ([1]; Table 1A)	Size (nm) [1, 6]	Total Flux Femur [2]	Total Flux Liver [2]	Total Flux Lung [2]	Total Flux Spleen [2]	IL-6 induction [3]	IP-10 induction [3]	Cytokine induction IL-6 [3]	Cytokine induction IP-10 [3]	% Lipid Remaining in liver, 48 h ([4]; rats)	% remaining dose in liver, 48 h ([4]; rats)	further results
CCCCCCCCCN(CCO)CCCCCCCC(=O)OC(CCCCCCCC)CCCCCCCC [Compound 3, Heptadecan-9-yl 8-((2-hydroxyethyl)(nonyl)amino)octanoate]	0.20	97.5 nm	7.36E+06	1.39E+10	4.76E+07	1.47E+08	highest	highest	282.88	2052.87	14%	14.2%	Flux in the liver ([2]; i.v., in words): highest
CCCCCC/C=C\COC(=O)CCCCCCCN(CCO)CCCCCCCC(=O)OC(CCCCCCCC)CCCCCCCC [Compound 24, Heptadecan-9-yl (Z)-8_((2-hydroxyethyl) (8-(non-2-en-1-yloxy)-8-oxooctyl)amino)octanoate]	0.13	99.5 nm	4.54E+06	4.19E+09	1.71E+07	8.78E+07	–	–	163.53	1172.93	0.016%	<1%	PDI [1, 7]: 0.17; Size (nm) [1, 7]: 88.5 nm; Novel lipid/MC3 expression ratio, s.c. Luc 0.5 mpk (AUC) ([5]; 0.5 mpk, AUC, relative to MC3): (AUC: 5.21); Lipid/MC3 AUC ratio ([5]; 0.5 mpk, luciferase): 5.21; AUC (luciferase expression) ([5]; 0.5 mpk, whole body BLI): 8.9281E+10 (p/s) * h; Novel lipid/MC3 ratio, s.c. Luc 6 hr. ([5]; 6 hr., relative to MC3, Table 3G): 5.79
CCCCCCCCCOC(=O)CCCN(CCO)CCCCCCCC(=O)OC(CCCCCCCC)CCCCCCCC [Compound 26, Heptadecan-9-yl 8-((2-hydroxyethyl)(4-(nonyloxy)-4-oxobutyl)amino) octanoate]	0.16	91.9 nm	4.67E+06	2.90E+09	1.18E+07	1.56E+07	highest	highest	273.56	2330.01	20%	–	PDI (Polydispersity index) ([1]; lipid nanoparticle, ±SD within one assay run (Table 37)): 0.16 ± 0.03; PDI ([1]; nanoparticle composition with hEPO mRNA (Table 30)): 0.120; % dose remaining Rat liver tissue, 48 h ([4]; Sprague Dawley rat liver 48 h after 2 mg/kg bolus dose mRNA): 20 ± 4.0^f %; parent amino lipid levels in the liver ([4]; Sprague Dawley rats, 48 h post dose): 20%; % lipid remaining in liver after 48 hours ([4]; liver, 48 hours): 20%; lipid levels in the liver after 48 hours ([4]; rats, i.v., dose response study): about 19%
CCCCCCCCC(CCC)OC(=O)CCCCCCCN(CCO)CCCCCCCC(=O)OC(CCCCCCCC)CCCCCCCC (stereo not drawn) [Compound 50, dodecan-4-yl 8-((8-(heptadecan-9-yloxy)-8-oxooctyl)(2-hydroxyethyl)amino)octanoate]	0.100	68.4 nm	–	6.30E+09	2.81E+07	1.14E+08	–	–	–	–	15.9%	–	–
CCCCCCCCCOC(=O)CCCCCCCN(CCO)CCCCCCCCCC(=O)OC(CCCCCC)CCCCCC [Compound 147, Tridecan-7-yl 10-((2-hydroxyethyl)(8-(nonyloxy)-8-oxooctyl)amino)decanoate]	0.130	99.5 nm	–	5.24E+09	6.73E+06	8.57E+07	–	–	–	–	–	–	PDI [1, 8]: 0.22; Size (nm) [1, 8]: 111.9 nm; % dose remaining, liver, 24 h ([4]; Table 19B, liver, 24 h): 0.00%
